From ChEMBL document CHEMBL4602617, “Discovery and optimization of heteroaryl piperazines as potent and selective PI3Kδ inhibitors” (Bioorg Med Chem Lett, 2020)

Tests used:
Rhodopsin kinase GRK7 = Rhodopsin kinase GRK7 (Homo sapiens, UniProt Q8WTQ7); experiment: Inhibition of recombinant full length human GST-tagged GRK7 expressed in baculovirus expression system using serine/threonine-16 peptide as substrate incubated for 60 mins in presence of ATP by Z'-LYTE assay
[1] = molecular target: Interleukin-1 receptor-associated kinase 1 (Homo sapiens, UniProt P51617); experiment: Inhibition of recombinant human GST-tagged IRAK1 catalytic domain (194 to 712 residues) expressed in baculovirus expression system using Histone H3 (1-20) peptide as substrate incubated for 60 mins in presence of ATP by Adapta assay
[2] = molecular target: Sodium-dependent noradrenaline transporter (Homo sapiens) (UniProt P23975); experiment: Displacement of [125I]RTI-55 from full length recombinant human NET expressed in MDCK cells at 10 uM after 3 hrs by radiometric scintillation analysis relative to control; format: cell-based
[3] = molecular target: Serine/threonine-protein kinase pim-1 (Homo sapiens, UniProt P11309); experiment: Inhibition of recombinant full length human His-tagged PIM1 expressed in baculovirus expression system using serine/threonine-7 peptide as substrate incubated for 60 mins in presence of ATP by Z'-LYTE assay
[4] = molecular target: Serine/threonine-protein kinase 3 (Homo sapiens, UniProt Q13188); experiment: Inhibition of recombinant full length human GST-tagged MST2 expressed in baculovirus expression system using serine/threonine-7 peptide as substrate incubated for 60 mins in presence of ATP by Z'-LYTE assay
[5] = molecular target: G protein-coupled receptor kinase 3 (Homo sapiens, UniProt P35626); experiment: Inhibition of recombinant full length human GST-tagged GRK3 expressed in baculovirus expression system using serine/threonine-16 peptide as substrate incubated for 60 mins in presence of ATP by Z'-LYTE assay
[6] = Unbound clearance in rat at 0.5 mg/kg, iv or 1 mg/kg, po; format: ADME, organism-based; conditions: in vivo
[7] = molecular target: Tyrosine-protein kinase ITK/TSK (Homo sapiens, UniProt Q08881); experiment: Inhibition of recombinant full length human GST-tagged ITK expressed in baculovirus expression system using tyrosine-1 peptide as substrate incubated for 60 mins in presence of ATP by Z'-LYTE assay
[8] = molecular target: MAP kinase-activated protein kinase 3 (Homo sapiens, UniProt Q16644); experiment: Inhibition of recombinant His-tagged human full length MAPKAPK3 expressed in baculovirus expression system using Ser/Thr-04 peptide as substrate after 1 hr in presence of ATP by Z'LYTE assay
Aurora kinase A = Aurora kinase A (Homo sapiens, UniProt O14965); experiment: Inhibition of recombinant human full length AURKA expressed in baculovirus expression system using Ser/Thr-01 peptide as substrate after 1 hr in presence of ATP by Z'LYTE assay
[9] = molecular target: Proto-oncogene tyrosine-protein kinase receptor Ret (Homo sapiens, UniProt P07949); experiment: Inhibition of recombinant human GST-tagged RET cytoplasmic domain expressed in baculovirus expression system using tyr02 peptide as substrate incubated for 60 mins in presence of ATP by Z'-LYTE assay
[10] = molecular target: Epidermal growth factor receptor (Homo sapiens, UniProt P00533, L861Q); experiment: Inhibition of human recombinant GST-tagged EGFR L861Q mutant cytoplasmic domain expressed in baculovirus expression system using tyrosine 4 peptide as substrate after 60 mins in presence of ATP FRET based Z'-LYTE assay
[11] = molecular target: Testis-specific serine/threonine-protein kinase 1 (Homo sapiens, UniProt Q9BXA7); experiment: Inhibition of recombinant full length human His-tagged TSSK1 expressed in baculovirus expression system using serine/threonine-4 peptide as substrate incubated for 60 mins in presence of ATP by Z'-LYTE assay
[12] = molecular target: Dual specificity mitogen-activated protein kinase kinase 2 (Homo sapiens, UniProt P36507); experiment: Inhibition of recombinant full length human His-tagged MEK2 expressed in baculovirus expression system using serine/threonine-3 peptide as substrate incubated for 60 mins in presence of ATP by Z'-LYTE assay
[13] = molecular target: Tyrosine-protein kinase ABL2 (Homo sapiens, UniProt P42684); experiment: Inhibition of recombinant full length human C-terminal His-tagged ABL2F cytoplasmic domain expressed in baculovirus expression system using tyrosine-2 peptide as substrate incubated for 60 mins in presence of ATP by Z'-LYTE assay
[14] = molecular target: Glycogen synthase kinase-3 beta (Homo sapiens, UniProt P49841); experiment: Inhibition of recombinant full length human His-tagged GSK3beta expressed in baculovirus expression system using serine/threonine-9 peptide as substrate incubated for 60 mins in presence of ATP by Z'-LYTE assay
[15] = molecular target: Prostaglandin E2 receptor EP1 subtype (Homo sapiens) (UniProt P34995); experiment: Displacement of [3H]prostaglandin E2 from full length human recombinant EP1 receptor expressed in HEK293 cells at 10 uM measured after 60 mins by radiometric scintillation analysis relative to control; format: cell-based
[16] = molecular target: Serine/threonine-protein kinase PLK3 (Homo sapiens, UniProt Q9H4B4); experiment: Inhibition of recombinant human GST-tagged PLK3 catalytic domain (58 to 340 residues) expressed in baculovirus expression system using serine/threonine-16 peptide as substrate incubated for 60 mins in presence of ATP by Z'-LYTE assay
[17] = molecular target: Mitogen-activated protein kinase kinase kinase kinase 5 (Homo sapiens, UniProt Q9Y4K4); experiment: Inhibition of recombinant full length human GST-tagged KHS1 expressed in baculovirus expression system using serine/threonine-7 peptide as substrate incubated for 60 mins in presence of ATP by Z'-LYTE assay
Ephrin type-A receptor 3 = Ephrin type-A receptor 3 (Homo sapiens, UniProt P29320); experiment: Inhibition of tracer 236 binding to recombinant human His-tagged EPHA3 (569 to 976 residues) expressed in baculovirus expression system measured after 60 mins in presence of ATP by Lanthascreen assay
[18] = molecular target: Mitogen-activated protein kinase 10 (Homo sapiens, UniProt P53779); experiment: Inhibition of recombinant full length human GST-tagged JNK3 expressed in baculovirus expression system using serine/threonine-4 peptide as substrate incubated for 60 mins in presence of ATP by Z'-LYTE assay
Ephrin type-B receptor 1 = Ephrin type-B receptor 1 (Homo sapiens, UniProt P54762); experiment: Inhibition of recombinant human GST-tagged EPHB1 catalytic domain expressed in baculovirus expression system using tyrosine-2 peptide as substrate incubated for 60 mins in presence of ATP by Z'-LYTE assay
[19] = molecular target: Serine/threonine-protein kinase BRSK1 (Homo sapiens, UniProt Q8TDC3); experiment: Inhibition of recombinant GST-tagged human BRSK1 expressed in baculovirus expression system using Ser/Thr-21 as substrate after 1 hr in presence of ATP by Z'-LYTE assay
Serine/threonine-protein kinase BRSK1, sequence (Q8TDC3 whole entry): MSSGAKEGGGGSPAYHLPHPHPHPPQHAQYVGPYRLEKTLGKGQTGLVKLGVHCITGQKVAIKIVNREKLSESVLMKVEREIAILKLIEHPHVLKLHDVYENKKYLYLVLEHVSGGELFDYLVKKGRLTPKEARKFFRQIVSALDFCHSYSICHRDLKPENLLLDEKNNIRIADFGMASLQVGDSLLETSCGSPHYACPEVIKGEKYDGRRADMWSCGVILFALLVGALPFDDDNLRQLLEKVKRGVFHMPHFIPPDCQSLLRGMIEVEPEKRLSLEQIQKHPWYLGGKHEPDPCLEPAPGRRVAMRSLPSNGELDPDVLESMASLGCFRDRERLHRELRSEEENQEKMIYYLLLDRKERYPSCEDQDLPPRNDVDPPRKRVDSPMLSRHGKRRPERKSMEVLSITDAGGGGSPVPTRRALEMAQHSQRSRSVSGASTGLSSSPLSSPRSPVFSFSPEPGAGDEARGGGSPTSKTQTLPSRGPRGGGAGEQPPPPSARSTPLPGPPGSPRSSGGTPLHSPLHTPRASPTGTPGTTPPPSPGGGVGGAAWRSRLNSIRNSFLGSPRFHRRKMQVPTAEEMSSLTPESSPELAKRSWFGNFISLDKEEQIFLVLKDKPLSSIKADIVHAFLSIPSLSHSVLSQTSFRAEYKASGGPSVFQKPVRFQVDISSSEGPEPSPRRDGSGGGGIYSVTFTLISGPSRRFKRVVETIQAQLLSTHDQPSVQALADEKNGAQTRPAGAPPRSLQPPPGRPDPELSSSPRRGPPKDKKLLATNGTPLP

Dual specificity mitogen-activated protein kinase kinase 2, sequence (P36507 whole entry, the tested form may be a part): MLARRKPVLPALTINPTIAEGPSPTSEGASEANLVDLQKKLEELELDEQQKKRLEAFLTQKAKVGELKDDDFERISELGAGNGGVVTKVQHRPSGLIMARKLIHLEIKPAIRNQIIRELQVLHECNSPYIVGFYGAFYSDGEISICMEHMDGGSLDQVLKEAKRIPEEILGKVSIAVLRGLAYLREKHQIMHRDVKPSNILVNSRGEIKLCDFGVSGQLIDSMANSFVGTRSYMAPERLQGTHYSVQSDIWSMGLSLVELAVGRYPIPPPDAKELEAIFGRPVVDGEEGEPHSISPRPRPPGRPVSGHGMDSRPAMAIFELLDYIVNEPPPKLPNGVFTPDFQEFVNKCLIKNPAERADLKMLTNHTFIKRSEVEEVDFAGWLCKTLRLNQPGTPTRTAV
Prostaglandin E2 receptor EP1 subtype (Homo sapiens), sequence (P34995 whole entry, the tested form may be a part): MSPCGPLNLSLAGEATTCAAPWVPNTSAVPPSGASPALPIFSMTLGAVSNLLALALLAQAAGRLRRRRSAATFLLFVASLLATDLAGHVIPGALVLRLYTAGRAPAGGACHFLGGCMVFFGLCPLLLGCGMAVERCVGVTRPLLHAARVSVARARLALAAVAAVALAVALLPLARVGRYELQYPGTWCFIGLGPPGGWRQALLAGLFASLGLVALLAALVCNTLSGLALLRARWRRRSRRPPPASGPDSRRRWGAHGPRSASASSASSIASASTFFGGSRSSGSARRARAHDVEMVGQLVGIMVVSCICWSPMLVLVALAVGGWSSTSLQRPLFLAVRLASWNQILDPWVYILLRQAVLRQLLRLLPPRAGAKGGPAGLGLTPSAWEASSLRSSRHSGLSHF
Serine/threonine-protein kinase pim-1, sequence (P11309 whole entry): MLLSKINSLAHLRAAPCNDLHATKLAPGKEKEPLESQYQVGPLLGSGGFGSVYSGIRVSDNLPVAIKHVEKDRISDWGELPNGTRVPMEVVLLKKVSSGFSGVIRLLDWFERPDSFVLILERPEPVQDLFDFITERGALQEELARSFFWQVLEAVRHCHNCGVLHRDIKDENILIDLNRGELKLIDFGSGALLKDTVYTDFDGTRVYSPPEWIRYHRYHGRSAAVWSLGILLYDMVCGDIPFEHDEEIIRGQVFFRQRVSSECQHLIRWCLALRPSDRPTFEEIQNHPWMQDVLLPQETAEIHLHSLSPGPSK
Aurora kinase A, sequence (O14965 whole entry, the tested form may be a part): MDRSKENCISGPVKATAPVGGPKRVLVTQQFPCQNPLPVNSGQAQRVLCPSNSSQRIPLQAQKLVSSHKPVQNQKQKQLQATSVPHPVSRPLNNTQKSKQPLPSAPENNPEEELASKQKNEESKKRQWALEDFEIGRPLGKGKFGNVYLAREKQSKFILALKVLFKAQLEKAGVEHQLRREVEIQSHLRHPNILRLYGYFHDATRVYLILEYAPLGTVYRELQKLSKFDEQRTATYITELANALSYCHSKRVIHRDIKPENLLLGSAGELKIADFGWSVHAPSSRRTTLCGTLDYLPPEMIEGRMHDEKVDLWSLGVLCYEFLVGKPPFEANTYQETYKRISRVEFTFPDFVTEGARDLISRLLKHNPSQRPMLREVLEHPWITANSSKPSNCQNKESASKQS
Ephrin type-B receptor 1, sequence (P54762 whole entry, the tested form may be a part): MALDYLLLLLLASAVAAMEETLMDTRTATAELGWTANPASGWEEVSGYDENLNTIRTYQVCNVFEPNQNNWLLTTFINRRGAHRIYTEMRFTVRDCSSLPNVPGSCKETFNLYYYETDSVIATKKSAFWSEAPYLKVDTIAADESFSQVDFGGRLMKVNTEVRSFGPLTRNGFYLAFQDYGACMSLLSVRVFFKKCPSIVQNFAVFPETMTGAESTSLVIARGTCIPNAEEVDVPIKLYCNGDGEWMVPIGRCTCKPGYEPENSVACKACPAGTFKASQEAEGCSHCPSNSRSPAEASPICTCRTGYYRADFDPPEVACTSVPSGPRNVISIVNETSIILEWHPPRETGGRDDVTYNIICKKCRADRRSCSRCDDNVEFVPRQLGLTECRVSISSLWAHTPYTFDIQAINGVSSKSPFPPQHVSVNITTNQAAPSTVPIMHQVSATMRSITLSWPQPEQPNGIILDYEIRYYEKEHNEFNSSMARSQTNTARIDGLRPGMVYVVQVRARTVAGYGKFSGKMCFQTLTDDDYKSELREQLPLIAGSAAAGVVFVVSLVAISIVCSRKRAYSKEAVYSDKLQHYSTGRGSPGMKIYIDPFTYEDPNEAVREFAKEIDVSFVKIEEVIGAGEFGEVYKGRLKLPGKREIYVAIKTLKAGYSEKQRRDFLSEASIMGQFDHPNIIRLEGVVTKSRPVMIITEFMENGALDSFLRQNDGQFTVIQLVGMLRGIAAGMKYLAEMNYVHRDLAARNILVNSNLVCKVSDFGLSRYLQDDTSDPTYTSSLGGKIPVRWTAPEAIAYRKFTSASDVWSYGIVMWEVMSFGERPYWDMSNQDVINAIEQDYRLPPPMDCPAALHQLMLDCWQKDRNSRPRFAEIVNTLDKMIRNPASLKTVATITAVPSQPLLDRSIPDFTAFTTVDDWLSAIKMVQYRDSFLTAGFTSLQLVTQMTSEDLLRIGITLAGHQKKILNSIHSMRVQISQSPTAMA
Serine/threonine-protein kinase PLK3, sequence (Q9H4B4 whole entry, the tested form may be a part): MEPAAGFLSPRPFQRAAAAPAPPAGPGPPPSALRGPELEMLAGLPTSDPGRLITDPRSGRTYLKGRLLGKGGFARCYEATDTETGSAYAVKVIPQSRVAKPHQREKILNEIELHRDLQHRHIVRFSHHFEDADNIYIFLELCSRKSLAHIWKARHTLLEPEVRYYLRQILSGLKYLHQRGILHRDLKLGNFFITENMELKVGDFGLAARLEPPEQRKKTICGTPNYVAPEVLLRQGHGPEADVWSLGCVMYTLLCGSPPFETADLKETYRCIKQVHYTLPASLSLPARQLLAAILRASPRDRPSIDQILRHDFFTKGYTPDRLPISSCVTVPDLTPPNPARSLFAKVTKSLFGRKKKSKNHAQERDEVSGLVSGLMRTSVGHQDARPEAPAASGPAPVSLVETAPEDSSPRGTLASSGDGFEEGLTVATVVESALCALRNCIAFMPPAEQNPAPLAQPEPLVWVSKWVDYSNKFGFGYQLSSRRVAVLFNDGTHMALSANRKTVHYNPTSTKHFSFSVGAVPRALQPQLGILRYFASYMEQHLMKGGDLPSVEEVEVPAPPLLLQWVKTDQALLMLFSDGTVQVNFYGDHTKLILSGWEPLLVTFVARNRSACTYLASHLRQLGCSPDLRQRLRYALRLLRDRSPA
Rhodopsin kinase GRK7, sequence (Q8WTQ7 whole entry, the tested form may be a part): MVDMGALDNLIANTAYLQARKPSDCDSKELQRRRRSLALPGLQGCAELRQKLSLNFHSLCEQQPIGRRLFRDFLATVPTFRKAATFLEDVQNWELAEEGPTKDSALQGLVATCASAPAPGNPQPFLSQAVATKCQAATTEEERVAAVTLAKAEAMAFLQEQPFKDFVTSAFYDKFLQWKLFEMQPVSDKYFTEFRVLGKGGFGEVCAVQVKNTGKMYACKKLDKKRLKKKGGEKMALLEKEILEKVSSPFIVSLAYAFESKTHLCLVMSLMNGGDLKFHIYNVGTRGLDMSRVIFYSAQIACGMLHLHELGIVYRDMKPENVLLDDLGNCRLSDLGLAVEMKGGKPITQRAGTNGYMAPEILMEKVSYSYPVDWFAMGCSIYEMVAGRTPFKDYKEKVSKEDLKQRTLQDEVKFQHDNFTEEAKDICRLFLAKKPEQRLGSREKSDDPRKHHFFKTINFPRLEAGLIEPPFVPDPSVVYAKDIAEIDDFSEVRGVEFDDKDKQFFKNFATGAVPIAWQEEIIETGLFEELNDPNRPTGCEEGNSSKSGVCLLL
MAP kinase-activated protein kinase 3, sequence (Q16644 whole entry): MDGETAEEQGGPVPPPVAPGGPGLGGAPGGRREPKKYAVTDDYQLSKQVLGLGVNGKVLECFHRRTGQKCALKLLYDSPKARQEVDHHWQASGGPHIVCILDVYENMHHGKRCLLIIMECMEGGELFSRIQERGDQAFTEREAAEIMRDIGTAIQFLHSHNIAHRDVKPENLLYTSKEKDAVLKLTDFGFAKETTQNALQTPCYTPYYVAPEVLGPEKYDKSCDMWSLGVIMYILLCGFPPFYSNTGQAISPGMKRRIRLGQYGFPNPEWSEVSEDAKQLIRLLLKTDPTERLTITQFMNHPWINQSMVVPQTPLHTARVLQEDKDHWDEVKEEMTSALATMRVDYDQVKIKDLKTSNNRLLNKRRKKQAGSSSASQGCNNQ

Question: Which results are given for `C[C@@H]1C[C@H]1C(=O)N1CCN(c2cnc(C#N)c(-c3cnn(C)c3)n2)C[C@H]1C`?
Answer: IC50 (Rhodopsin kinase GRK7): > 100 µM; IC50 [1]: > 100 µM; inhibition [2]: 3%; IC50 [3]: > 100 µM; IC50 [4]: > 100 µM; IC50 [5]: > 100 µM; CL free [6]: 187 mL/min/kg; IC50 [7]: > 100 µM; IC50 [8]: 23.5 µM; IC50 (Aurora kinase A): 16 µM; IC50 [9]: > 100 µM; IC50 [10]: > 100 µM; IC50 [11]: > 100 µM; IC50 [12]: > 100 µM; IC50 [13]: > 100 µM; IC50 [14]: 28.1 µM; inhibition [15]: 11%; IC50 [16]: > 100 µM; IC50 [17]: 30.4 µM; IC50 (Ephrin type-A receptor 3): > 100 µM; IC50 [18]: > 100 µM; IC50 (Ephrin type-B receptor 1): 37.7 µM; IC50 [19]: > 100 µM
